Reference: ChEMBL document CHEMBL4043187, “Synthesis and biological evaluation of N9-cis-cyclobutylpurine derivatives for use as cyclin-dependent kinase (CDK) inhibitors” (Bioorg Med Chem Lett, 2017)

Legend:
[1] = target: Cyclin-dependent kinase 5/CDK5 activator 1 (Homo sapiens) (UniProt Q00535+Q15078); test: Inhibition of CDK5/p35 (unknown origin) using ULingt-4E-BP as substrate at 25 nM after 1 hr in presence of ATP by fluorescence assay relative to control; format: protein-complex assay
[2] = target: CDK2/Cyclin A2 (Homo sapiens) (UniProt P24941+P20248); test: Inhibition of CDK2/CyclinA (unknown origin) using ULingt-4E-BP as substrate at 25 nM after 1 hr in presence of ATP by fluorescence assay relative to control; format: protein-complex assay
[3] = target: CDK2/Cyclin A2 (Homo sapiens, UniProt P24941); test: Inhibition of CDK2/CyclinA (unknown origin) using ULingt-4E-BP as substrate after 1 hr in presence of ATP by fluorescence assay; format: protein-complex assay
[4] = target: Cyclin-dependent kinase 5/CDK5 activator 1 (Homo sapiens, UniProt Q00535); test: Inhibition of CDK5/p35 (unknown origin) using ULingt-4E-BP as substrate after 1 hr in presence of ATP by fluorescence assay; format: protein-complex assay
Cyclin-dependent kinase 5/CDK5 activator 1, sequence (Q00535 whole entry): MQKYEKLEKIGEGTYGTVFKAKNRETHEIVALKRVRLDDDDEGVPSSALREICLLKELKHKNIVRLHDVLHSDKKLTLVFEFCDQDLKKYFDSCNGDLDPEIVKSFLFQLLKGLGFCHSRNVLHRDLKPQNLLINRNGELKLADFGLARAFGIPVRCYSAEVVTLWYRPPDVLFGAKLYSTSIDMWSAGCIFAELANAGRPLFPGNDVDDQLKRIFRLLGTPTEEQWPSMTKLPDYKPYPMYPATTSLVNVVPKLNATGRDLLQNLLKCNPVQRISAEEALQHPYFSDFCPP
Cyclin-dependent kinase 5/CDK5 activator 1, sequence (Q15078 whole entry, further chain): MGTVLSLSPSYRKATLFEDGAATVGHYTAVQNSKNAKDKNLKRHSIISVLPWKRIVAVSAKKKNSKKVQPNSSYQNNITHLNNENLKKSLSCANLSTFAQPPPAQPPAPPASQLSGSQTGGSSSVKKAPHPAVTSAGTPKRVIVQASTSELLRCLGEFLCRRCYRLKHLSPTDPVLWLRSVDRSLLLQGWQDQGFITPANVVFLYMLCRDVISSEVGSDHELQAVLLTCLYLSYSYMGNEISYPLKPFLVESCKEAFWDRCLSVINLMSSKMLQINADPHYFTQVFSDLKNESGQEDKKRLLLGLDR

[5] = test system: HCT-116; test: Growth inhibition of human HCT116 cells after 72 hrs by SRB assay; format: functional
[6] = target: CDK4/Cyclin D3 (Homo sapiens, UniProt P11802); test: Inhibition of human CDK4/CyclinD3; format: protein-complex assay
CDK4/Cyclin D3, sequence (P11802 whole entry): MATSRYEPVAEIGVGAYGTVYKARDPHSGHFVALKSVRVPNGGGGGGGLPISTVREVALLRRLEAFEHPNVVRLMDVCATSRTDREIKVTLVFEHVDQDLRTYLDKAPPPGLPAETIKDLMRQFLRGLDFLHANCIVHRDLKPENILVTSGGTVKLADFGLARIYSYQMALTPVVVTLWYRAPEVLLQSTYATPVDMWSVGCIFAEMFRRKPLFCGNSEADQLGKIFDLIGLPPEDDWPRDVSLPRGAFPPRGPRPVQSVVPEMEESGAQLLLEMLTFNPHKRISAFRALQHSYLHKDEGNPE
CDK4/Cyclin D3, sequence (P30281 whole entry, further chain): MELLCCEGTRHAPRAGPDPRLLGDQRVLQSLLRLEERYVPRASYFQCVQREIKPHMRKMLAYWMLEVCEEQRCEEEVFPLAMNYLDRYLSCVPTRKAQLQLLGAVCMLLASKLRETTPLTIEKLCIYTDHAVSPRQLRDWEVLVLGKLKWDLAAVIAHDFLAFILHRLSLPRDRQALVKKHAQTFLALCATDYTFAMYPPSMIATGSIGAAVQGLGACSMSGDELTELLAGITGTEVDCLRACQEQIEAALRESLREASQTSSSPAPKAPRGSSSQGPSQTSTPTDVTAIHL

[7] = target: Cyclin-dependent kinase 1/cyclin B1 (Homo sapiens, UniProt P06493); test: Inhibition of human CDK1/CyclinB; format: protein-complex assay
Cyclin-dependent kinase 1/cyclin B1, sequence (P06493 whole entry): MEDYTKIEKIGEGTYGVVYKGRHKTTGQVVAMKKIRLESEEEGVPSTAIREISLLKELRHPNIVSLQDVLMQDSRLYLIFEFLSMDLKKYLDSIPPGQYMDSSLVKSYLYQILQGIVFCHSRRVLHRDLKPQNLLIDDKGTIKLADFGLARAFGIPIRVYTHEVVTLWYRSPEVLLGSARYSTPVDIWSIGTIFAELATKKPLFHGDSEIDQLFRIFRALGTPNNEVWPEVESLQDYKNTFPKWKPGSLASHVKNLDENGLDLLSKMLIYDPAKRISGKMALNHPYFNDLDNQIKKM
Cyclin-dependent kinase 1/cyclin B1, sequence (P14635 whole entry, further chain): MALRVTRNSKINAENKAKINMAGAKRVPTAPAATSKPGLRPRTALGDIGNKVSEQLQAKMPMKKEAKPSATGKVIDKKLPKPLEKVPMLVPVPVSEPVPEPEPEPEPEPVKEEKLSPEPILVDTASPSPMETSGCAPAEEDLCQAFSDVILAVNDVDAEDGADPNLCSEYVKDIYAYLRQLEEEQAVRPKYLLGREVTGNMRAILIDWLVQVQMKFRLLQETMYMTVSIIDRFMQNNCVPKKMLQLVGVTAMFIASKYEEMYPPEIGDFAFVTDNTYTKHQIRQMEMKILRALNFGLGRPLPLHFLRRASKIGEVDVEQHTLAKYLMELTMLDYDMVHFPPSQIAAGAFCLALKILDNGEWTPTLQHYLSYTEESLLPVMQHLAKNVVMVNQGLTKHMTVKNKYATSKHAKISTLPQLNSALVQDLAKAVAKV

[8] = test system: MCF7; test: Growth inhibition of human MCF7 cells after 72 hrs by SRB assay; format: functional
[9] = target: CDK9/cyclin T1 (Homo sapiens, UniProt P50750); test: Inhibition of human CDK9/CyclinT1; format: protein-complex assay
CDK9/cyclin T1, sequence (O60563 whole entry): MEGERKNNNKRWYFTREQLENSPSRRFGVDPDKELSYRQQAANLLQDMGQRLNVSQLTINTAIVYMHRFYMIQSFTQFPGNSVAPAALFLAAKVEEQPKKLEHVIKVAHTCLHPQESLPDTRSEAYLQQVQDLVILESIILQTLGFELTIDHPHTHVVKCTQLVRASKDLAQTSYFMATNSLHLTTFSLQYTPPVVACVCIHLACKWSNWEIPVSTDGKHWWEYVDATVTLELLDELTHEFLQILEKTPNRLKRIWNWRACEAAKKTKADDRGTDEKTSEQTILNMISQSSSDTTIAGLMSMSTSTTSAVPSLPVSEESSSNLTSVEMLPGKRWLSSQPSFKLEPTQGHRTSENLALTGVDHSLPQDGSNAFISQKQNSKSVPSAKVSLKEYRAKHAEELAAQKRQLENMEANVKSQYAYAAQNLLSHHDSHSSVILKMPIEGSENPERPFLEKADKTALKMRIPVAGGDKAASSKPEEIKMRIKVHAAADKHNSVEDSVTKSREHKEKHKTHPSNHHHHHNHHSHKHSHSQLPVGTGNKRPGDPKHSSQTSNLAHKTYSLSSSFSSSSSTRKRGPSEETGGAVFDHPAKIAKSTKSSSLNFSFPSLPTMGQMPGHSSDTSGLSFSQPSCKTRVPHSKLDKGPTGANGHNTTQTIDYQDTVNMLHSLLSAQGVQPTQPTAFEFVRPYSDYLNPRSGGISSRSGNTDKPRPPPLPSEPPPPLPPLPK
CDK9/cyclin T1, sequence (P50750 whole entry): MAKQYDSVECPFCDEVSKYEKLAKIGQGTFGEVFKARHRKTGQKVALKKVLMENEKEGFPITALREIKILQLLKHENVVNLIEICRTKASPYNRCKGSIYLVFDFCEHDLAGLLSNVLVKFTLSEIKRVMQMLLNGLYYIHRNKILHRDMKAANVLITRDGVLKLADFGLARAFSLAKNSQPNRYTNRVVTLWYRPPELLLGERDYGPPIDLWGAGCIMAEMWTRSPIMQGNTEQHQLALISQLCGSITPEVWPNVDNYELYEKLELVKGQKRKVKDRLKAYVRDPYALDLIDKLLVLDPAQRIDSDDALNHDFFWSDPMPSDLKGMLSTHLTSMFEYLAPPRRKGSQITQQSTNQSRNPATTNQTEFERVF

[10] = target: CDK6/cyclin D3 (Homo sapiens, UniProt Q00534); test: Inhibition of human CDK6/CyclinD3; format: protein-complex assay
CDK6/cyclin D3, sequence (P30281 whole entry): as the sequence (P30281 whole entry, further chain) above
CDK6/cyclin D3, sequence (Q00534 whole entry): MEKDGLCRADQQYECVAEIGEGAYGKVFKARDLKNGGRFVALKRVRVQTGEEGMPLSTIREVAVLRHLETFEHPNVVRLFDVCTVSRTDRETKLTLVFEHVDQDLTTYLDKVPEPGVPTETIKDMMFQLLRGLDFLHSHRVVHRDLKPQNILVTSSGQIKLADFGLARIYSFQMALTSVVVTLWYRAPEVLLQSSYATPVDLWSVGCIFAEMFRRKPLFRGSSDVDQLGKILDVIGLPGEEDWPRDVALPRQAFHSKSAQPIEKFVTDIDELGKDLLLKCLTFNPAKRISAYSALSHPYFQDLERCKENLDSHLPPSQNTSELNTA

[11] = target: CDK7/Cyclin H/MNAT1 (Homo sapiens, UniProt P50613); test: Inhibition of human CDK7/CyclinH/MAT1; format: protein-complex assay
CDK7/Cyclin H/MNAT1, sequence (P51946 whole entry): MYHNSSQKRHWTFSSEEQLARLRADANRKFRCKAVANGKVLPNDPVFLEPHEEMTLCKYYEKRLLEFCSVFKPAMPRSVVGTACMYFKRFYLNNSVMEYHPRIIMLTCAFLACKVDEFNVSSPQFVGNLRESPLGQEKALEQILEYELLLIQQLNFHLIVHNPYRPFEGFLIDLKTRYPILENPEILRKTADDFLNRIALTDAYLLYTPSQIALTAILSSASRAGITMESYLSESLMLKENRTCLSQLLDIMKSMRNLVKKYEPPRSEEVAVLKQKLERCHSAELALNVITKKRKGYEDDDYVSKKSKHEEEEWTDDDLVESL
CDK7/Cyclin H/MNAT1, sequence (P50613 whole entry): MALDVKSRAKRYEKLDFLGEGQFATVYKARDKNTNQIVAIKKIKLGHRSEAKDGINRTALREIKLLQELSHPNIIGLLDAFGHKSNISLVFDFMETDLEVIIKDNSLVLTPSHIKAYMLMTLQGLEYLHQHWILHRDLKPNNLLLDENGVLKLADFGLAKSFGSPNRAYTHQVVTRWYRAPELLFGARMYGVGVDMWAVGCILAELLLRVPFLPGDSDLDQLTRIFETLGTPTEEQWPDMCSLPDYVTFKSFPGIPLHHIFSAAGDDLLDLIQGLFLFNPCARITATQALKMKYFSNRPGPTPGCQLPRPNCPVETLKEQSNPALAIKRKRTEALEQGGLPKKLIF
CDK7/Cyclin H/MNAT1, sequence (P51948 whole entry, further chain): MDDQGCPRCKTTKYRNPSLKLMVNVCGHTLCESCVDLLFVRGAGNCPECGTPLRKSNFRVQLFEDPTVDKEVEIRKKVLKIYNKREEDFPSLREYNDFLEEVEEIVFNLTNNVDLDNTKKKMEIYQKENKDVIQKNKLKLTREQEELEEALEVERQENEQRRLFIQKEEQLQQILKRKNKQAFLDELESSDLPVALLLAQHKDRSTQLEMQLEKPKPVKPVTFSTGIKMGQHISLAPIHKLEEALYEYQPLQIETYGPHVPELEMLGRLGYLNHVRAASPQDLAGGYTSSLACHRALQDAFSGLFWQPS

Cyclin-dependent kinase 5/CDK5 activator 1 (Homo sapiens), sequence (Q00535 whole entry): as the sequence (Q00535 whole entry) above
Cyclin-dependent kinase 5/CDK5 activator 1 (Homo sapiens), sequence (Q15078 99-307 partner limits assumed): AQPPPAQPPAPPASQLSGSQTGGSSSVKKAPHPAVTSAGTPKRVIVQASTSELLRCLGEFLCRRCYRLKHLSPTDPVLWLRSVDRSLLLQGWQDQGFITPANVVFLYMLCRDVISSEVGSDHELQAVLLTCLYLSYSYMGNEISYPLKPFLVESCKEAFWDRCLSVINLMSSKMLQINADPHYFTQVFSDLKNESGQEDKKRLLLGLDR

SMILES | inhibition [1] | inhibition [2] | IC50 [3] | IC50 [4] | further results
Cc1cccc(C(=O)N[C@H]2C[C@@H](n3cnc4c(NCc5cccc(C(F)(F)F)c5)ncnc43)C2)n1 | 72% | < 50% | – | – | –
Cc1cccc(C(=O)N[C@H]2C[C@@H](n3cnc4c(NC5CCN(S(C)(=O)=O)CC5)ncnc43)C2)n1 | 48% | 62% | – | – | –
Cc1cccc(C(=O)N[C@H]2C[C@@H](n3cnc4c(NCc5ccncc5)ncnc43)C2)n1 | < 50% | < 50% | – | – | –
Cc1cccc(C(=O)N[C@H]2C[C@@H](n3cnc4c(NCC5CCN(C(=O)OC(C)(C)C)CC5)ncnc43)C2)n1 | – | – | 376 nM | 90 nM | –
Cc1cccc(C(=O)N[C@H]2C[C@@H](n3cnc4c(NC5CCN(C(=O)OC(C)(C)C)CC5)ncnc43)C2)n1 | – | – | 95 nM | 66 nM | –
Cc1cccc(C(=O)N[C@H]2C[C@@H](n3cnc4c(NCc5ccc(F)cc5)ncnc43)C2)n1 | – | – | 5.4 nM | 30 nM | –
Cc1ccc(C(=O)N[C@H]2C[C@@H](n3cnc4c(NCc5cccnc5)ncnc43)C2)cc1C | < 50% | < 50% | – | – | –
COc1ccc(Nc2ncnc3c2ncn3[C@H]2C[C@@H](NC(=O)c3cccc(C)n3)C2)cc1OC | – | – | 54 nM | 94 nM | –
Cc1cccc(C(=O)N[C@H]2C[C@@H](n3cnc4c(NCc5cccc(Br)c5)ncnc43)C2)n1 | – | – | 2.1 nM | 4.8 nM | GI [5]: 2.37 µM; IC50 [6]: 611 nM; IC50 [7]: 24 nM; GI [8]: 2.43 µM; IC50 [9]: 19 nM; IC50 [10]: > 1000 nM; IC50 [11]: 359 nM
O=C(N[C@H]1C[C@@H](n2cnc3c(NCc4cccnc4)ncnc32)C1)C1CCOCC1 | < 50% | < 50% | – | – | –
CN(C)c1cccc(C(=O)N[C@H]2C[C@@H](n3cnc4c(NCc5cccnc5)ncnc43)C2)c1 | < 50% | < 50% | – | – | –
Cc1cccc(C(=O)N[C@H]2C[C@@H](n3cnc4c(NCc5cccnc5)ncnc43)C2)n1 | – | – | 16 nM | 10 nM | –
CS(=O)(=O)N1CCC(C(=O)N[C@H]2C[C@@H](n3cnc4c(NCc5cccnc5)ncnc43)C2)CC1 | 48% | 62% | – | – | –
Cc1cccc(C(=O)N[C@H]2C[C@@H](n3cnc4c(NCC5CCNCC5)ncnc43)C2)n1 | – | – | 48 nM | 71 nM | –
Cc1cccc(C(=O)N[C@H]2C[C@@H](n3cnc4c(NCc5ccccc5C)ncnc43)C2)n1 | < 50% | < 50% | – | – | –
Cc1cccc(C(=O)N[C@H]2C[C@@H](n3cnc4c(NCc5cccc(F)c5)ncnc43)C2)n1 | – | – | 15 nM | 6 nM | –
Cc1cccc(C(=O)N[C@H]2C[C@@H](n3cnc4c(NCc5ccccc5Cl)ncnc43)C2)n1 | 59% | < 50% | – | – | –
Cc1cccc(C(=O)N[C@H]2C[C@@H](n3cnc4c(NCc5ccc(N(C)C)cc5)ncnc43)C2)n1 | 53% | < 50% | – | – | –
O=C(N[C@H]1C[C@@H](n2cnc3c(NCc4cccnc4)ncnc32)C1)c1cccc(-c2ccccc2)n1 | – | – | 38 nM | 31 nM | –

SMILES | inhibition [1] | inhibition [2] | IC50 [3] | IC50 [4] | further results
O=C(N[C@H]1C[C@@H](n2cnc3c(NCc4cccnc4)ncnc32)C1)c1cccc(Cl)c1Cl | < 50% | < 50% | – | – | –
Cc1cccc(C(=O)N[C@H]2C[C@@H](n3cnc4c(NCc5ccc(Oc6ccccc6)cc5)ncnc43)C2)n1 | < 50% | < 50% | – | – | –
Cc1cccc(C(=O)N[C@H]2C[C@@H](n3cnc4c(NCc5ccc(Cl)c(Cl)c5)ncnc43)C2)n1 | – | – | 77 nM | 34 nM | –
Cc1cccc(C(=O)N[C@H]2C[C@@H](n3cnc4c(NCc5ccc(Br)cc5)ncnc43)C2)n1 | 80% | 64% | – | – | –
Cc1cccc(C(=O)N[C@H]2C[C@@H](n3cnc4c(NCc5ccccc5F)ncnc43)C2)n1 | 55% | < 50% | – | – | –
Cc1cccc(C(=O)N[C@H]2C[C@@H](n3cnc4c(NC5CCNC5)ncnc43)C2)n1 (some centres undefined) | – | – | – | > 1000 nM | –
COc1ccc(C(=O)N[C@H]2C[C@@H](n3cnc4c(NCc5cccnc5)ncnc43)C2)cc1 | < 50% | < 50% | – | – | –
CN1CCCC1C(=O)N[C@H]1C[C@@H](n2cnc3c(NCc4cccnc4)ncnc32)C1 (some centres undefined) | < 50% | < 50% | – | – | –
CC(=O)N[C@H]1CC[C@@H](Nc2ncnc3c2ncn3[C@H]2C[C@@H](NC(=O)c3cccc(C)n3)C2)CC1 | – | – | 112 nM | 27 nM | –
Cc1cccc(C(=O)N[C@H]2C[C@@H](n3cnc4c(NC5CCN(C(=O)OC(C)(C)C)C5)ncnc43)C2)n1 (some centres undefined) | – | – | – | > 500 nM | –
O=C(N[C@H]1C[C@@H](n2cnc3c(NCc4cccnc4)ncnc32)C1)c1c(F)cccc1F | 57% | 78% | – | – | –
CC(=O)N[C@H]1CC[C@H](Nc2ncnc3c2ncn3[C@H]2C[C@@H](NC(=O)c3cccc(C)n3)C2)CC1 | – | – | 160 nM | 30 nM | –
Cc1cccc(C(=O)N[C@H]2C[C@@H](n3cnc4c(NCc5cccc(Cl)c5)ncnc43)C2)n1 | – | – | 7.2 nM | 2.3 nM | GI [5]: 2.14 µM; IC50 [6]: > 1000 nM; IC50 [7]: 23 nM; GI [8]: 2.49 µM; IC50 [9]: 27 nM; IC50 [10]: > 1000 nM; IC50 [11]: 319 nM
Cc1cccc(C(=O)N[C@H]2C[C@@H](n3cnc4c(NCC5CCCCC5)ncnc43)C2)n1 | – | – | 49 nM | 25 nM | –
Cc1cccc(C(=O)N[C@H]2C[C@@H](n3cnc4c(NC5CCNCC5)ncnc43)C2)n1 | – | – | 379 nM | 162 nM | –
O=C(N[C@H]1C[C@@H](n2cnc3c(NCc4cccnc4)ncnc32)C1)c1c(Cl)cccc1Cl | 64% | 82% | – | – | –
Cc1cccc(C(=O)N[C@H]2C[C@@H](n3cnc4c(NCc5ccc(F)c(F)c5)ncnc43)C2)n1 | – | – | 29 nM | 13 nM | –
Cc1cccc(C(=O)N[C@H]2C[C@@H](n3cnc4c(NC5CCN(C)CC5)ncnc43)C2)n1 | – | – | – | > 1000 nM | –
CC(=O)N1CCC(Nc2ncnc3c2ncn3[C@H]2C[C@@H](NC(=O)c3cccc(C)n3)C2)CC1 | – | – | 474 nM | 179 nM | –

SMILES | inhibition [1] | inhibition [2] | IC50 [3] | IC50 [4] | further results
Cc1cccc(C(=O)N[C@H]2C[C@@H](n3cnc4c(NCc5ccccn5)ncnc43)C2)n1 | 54% | 49% | – | – | –
Cc1cccc(C(=O)N[C@H]2C[C@@H](n3cnc4c(Nc5cccc(Cl)c5)ncnc43)C2)n1 | 60% | < 50% | – | – | –
Cc1cccc(C(=O)N[C@H]2C[C@@H](n3cnc4c(NCc5ccc(C#N)cc5)ncnc43)C2)n1 | < 50% | < 50% | – | – | –
O=C(N[C@H]1C[C@@H](n2cnc3c(NCc4cccnc4)ncnc32)C1)c1cnccn1 | < 50% | < 50% | – | – | –
Cc1cccc(C(=O)N[C@H]2C[C@@H](n3cnc4c(Nc5ccncc5)ncnc43)C2)n1 | – | – | > 1000 nM | > 1000 nM | –
O=C(N[C@H]1C[C@@H](n2cnc3c(NCc4cccnc4)ncnc32)C1)c1cccc(C(F)(F)F)n1 | – | – | 14 nM | 23 nM | –
O=C(N[C@H]1C[C@@H](n2cnc3c(NCc4cccnc4)ncnc32)C1)c1ccncc1 | < 50% | < 50% | – | – | –
O=C(CC1CCCCC1)N[C@H]1C[C@@H](n2cnc3c(NCc4cccnc4)ncnc32)C1 | < 50% | < 50% | – | – | –
COc1cc(Cl)ccc1C(=O)N[C@H]1C[C@@H](n2cnc3c(NCc4cccnc4)ncnc32)C1 | < 50% | < 50% | – | – | –
Cc1cccc(C(=O)N[C@H]2C[C@@H](n3cnc4c(NCc5ccc(C(F)(F)F)cc5)ncnc43)C2)n1 | 58% | < 50% | – | – | –
O=C(N[C@H]1C[C@@H](n2cnc3c(NCc4cccnc4)ncnc32)C1)c1ccccc1 | < 50% | < 50% | – | – | –
COc1ccc(Nc2ncnc3c2ncn3[C@H]2C[C@@H](NC(=O)c3cccc(C)n3)C2)cc1 | 63% | < 50% | – | – | –
Cc1cccc(C(=O)N[C@H]2C[C@@H](n3cnc4c(N[C@H]5CC[C@H](O)CC5)ncnc43)C2)n1 | – | – | – | > 500 nM | –
COc1ccc(CNc2ncnc3c2ncn3[C@H]2C[C@@H](NC(=O)c3cccc(C)n3)C2)cc1 | 81% | 57% | – | – | –
Cc1cccc(C(=O)N[C@H]2C[C@@H](n3cnc4c(Nc5cccc(F)c5)ncnc43)C2)n1 | < 50% | < 50% | – | – | –
O=C(N[C@H]1C[C@@H](n2cnc3c(NCc4cccnc4)ncnc32)C1)c1cccnc1 | < 50% | < 50% | – | – | –
Cc1cccc(C(=O)N[C@H]2C[C@@H](n3cnc4c(NCc5ccc(OC(F)(F)F)cc5)ncnc43)C2)n1 | 54% | < 50% | – | – | –
COc1ccccc1CNc1ncnc2c1ncn2[C@H]1C[C@@H](NC(=O)c2cccc(C)n2)C1 | < 50% | < 50% | – | – | –
COc1cccc(Nc2ncnc3c2ncn3[C@H]2C[C@@H](NC(=O)c3cccc(C)n3)C2)c1 | – | – | 18 nM | 67 nM | –
